We go through seven compounds from US5100907A, “Hydantoin esters” (Lonza, Inc., priority 1990, dated 1992).

The nature of series [1]: Emulsion stability tests. It is filed as physicochemical. The settings on record: for Classification of Emulsion: 2% ester, 7% myristyl propionate, 91% water. The method, then: Emulsion stability tests were performed on the esters (I), and for comparison on the precursor esters (Ia), to determine the extent to which each stabilized a standardized solution of water and an oil, using a common procedure consisting of homogenizing a mixture containing the test ester (2%), myristyl propionate (7%), and water (91%). While two emulsifiers are normally used to prepare a cosmetic formulation, e.g. one with a high HLB and the other with a low HLB, the test method herein using only one emulsifier, i.e. the test ester, is fully indicative of the emulsifying attributes of these esters.
The tests were performed with emulsions (500 g), prepared by combining the test ester (10.0 g), myristyl propionate (35 g), and distilled water (455 g) in a container and homogenizing the contents for one minute, via a Kika-Werk Ultra-Turrax S D-45 homogenizer. The emulsions were poured into a one pound flint jar, capped, and periodically examined over a 55 day period.

The nature of series [2]: HLB determination (weighted average method). It is filed as physicochemical. The source says: Hydrophilic-Lipophilic Balance or HLB is a means of associating the hydrophilic and lipophilic characteristics between two surfactants. A "weighted average" method was used to determine the HLB of the esters (I), and by comparison of the precursor ester (Ia), in which two emulsifiers of known HLB values along with the test ester were incorporated in a mixture of mineral oil and water. Evaluation and HLB determination of each of a series of prepared emulsion samples were effected by visual inspection.
The HLB of the mixture "m" is calculated from the sum of the HLB contributions of each surfactant, "a", "b", "c", per Equation 2 which describes a system of oil, water, and three surfactants.
Given that [HLB]m, [HLB]a, and [HLB]b, are known, and the ideal amount of "a", "b", and "c" to prepare a perfect emulsion has been determined, then by rearrangement of Eq. 2, the HLB of "c" can be calculated by Equation 3.
To obtain the HLB of the test ester as surfactant "c", a series of formulations was prepared in which the known surfactant sorbitan monostearate (SMS) as "a" and the known surfactant POE 20 sorbitan monostearate (POE 20 SMS) as "b" were varied in amount (wt. %) relative to each other at a constant amount (1 wt. %) of "c", until an optimum emulsion was obtained. Different combinations of "a" and "b" were used to vary the HLB of "c", for emulsifying a 40:56 (wt. %) mixture of paraffin oil and distilled water (totaling 96 wt. %).
To prepare the emulsions, surfactants "a", "b", and "c", and the paraffin oil were combined in a 150 ml beaker and heated slowly with agitation to 70°-80° C. The value of "X" in each formulation was predetermined by rearranging Eq. 3 to solve for X, and then inserting into the equation various [HLB]c values for the test ester (i.e., 2, 3, 4, 5, 6 . . . ). The [HLB]c values chosen reflected a range that would likely contain the actual HLB of the test ester. Hot distilled water (70°-80° C.) was then slowly added with agitation. The total weight of all these reagents was 100 grams. The resulting emulsion was allowed to cool, with continued agitation, until the temperature dropped below 30° C.
A series of emulsions for each test was prepared, one at a time, and then examined as a set. Each sample within the series was evaluated and graded according to the quality of the emulsion by visual examination of droplet size.

Series [3] is described as follows: Dispersion stability tests. The class given is physicochemical. The method, then:
The dispersion stability tests were performed on the esters (I) to determine the extent each was able to disperse itself in an aqueous medium.
The dispersions were prepared by homogenizing a mixture of the test ester and water, after which repeated examination of the sample was effected for a period of 55 days. This test method is fully indicative of the dispersibility of these esters (I).
The dispersion tests were performed with the esters at 0.5% and 5.0% active levels in water, prepared by combining the test ester with distilled water, and homogenizing the mixture for one to three minutes, via a Kika-Werk Ultra-Turrax S D-45 homogenizer. The dispersions were poured into an eight ounce flint jar, capped, and periodically examined over a 55 day period.

In series [4] the test system is Staphylococcus aureus. In words: Antimicrobial study against Staphylococcus aureus (gram-positive bacteria). The note with it: methylolated C8/10 10,800 ppm, methylolated lauric 11,400 ppm, DMDMH 3,000 ppm, others 14,700 ppm. The class given is cell-based. The method, then: (§1) The antimicrobial properties of typical esters (I) and (Ia) were tested by minimum inhibitory concentration (MIC) tests, along with certain known substances, against […] strains of organisms: a mold, Aspergillus niger; a gram-positive bacteria, Staphylococcus aureus; and two gram-negative bacteria, Escherichia coli and Pseudomonas aeruginosa. […] These tests were used to determine any effect on biocidal activity of the varying chain length of the ester.
(§2) The known substances, on which identical tests were also performed, included the biocide, dimethyloldimethylhydantoin or DMDMH (iv), and a series of three surfactants, i.e., the three common emulsifiers, sodium lauryl sulfate (SLS); ethylene glycol distearate (EGDS), in the form of the commercial product PEGOSPERSE 50 DS (Lonza Inc.); and polyoxyethylene 20 sorbitan monoleate (POE 20 SMO), in the form of the commercial product GLYCOSPERSE 0 20 (Lonza Inc.).
(§3) The tests entailed contaminating a preexisting micro-colony with a known quantity (ppm, concentration) of test material. Each colony was then examined periodically over a one week period. […] A test was deemed non-efficacious when there was no decrease in colony size. In an effort to avoid any possible solvent effect, the micro-study was conducted in a totally aqueous solvent system without use of any other solvent.

For series [5], the system named is Pseudomonas aeruginosa. The experiment in a line: Antimicrobial study against Pseudomonas aeruginosa (gram-negative bacteria). The settings on record: methylolated C8/10 10,800 ppm, methylolated lauric 11,400 ppm, DMDMH 3,000 ppm, others 14,700 ppm. It is filed as cell-based. The method, then:
as §1, §2, §3

For series [6], the system named is Escherichia coli. In words: Antimicrobial study against Escherichia coli (gram-negative bacteria). The note with it: methylolated C8/10 10,800 ppm, methylolated lauric 11,400 ppm, DMDMH 3,000 ppm, others 14,700 ppm. The class given is cell-based. The method, then:
as §1, §2, §3

For series [7], the system named is Aspergillus niger. In words: Antimicrobial study against Aspergillus niger (mold). It is filed as cell-based. The note with it: methylolated C8/10 10,800 ppm, methylolated lauric 11,400 ppm, DMDMH 3,000 ppm, others 14,700 ppm. On the procedure: as §1, §2, §3

In the case of `CCCCCCCCCCCCCCCCCC(=O)OCCN1C(=O)NC(=O)C1(C)C` [Stearic Non-Methylolated Ester, 2-(5,5-dimethyl-1,3-diazacyclopentane-2,4-dion-1-yl)-ethyl ester of stearic acid], the “Classification of Emulsion” value in series [1] (2 Hours after preparation), in series [1] (7 Days after preparation), in series [1] (22 Days after preparation) and in series [1] (55 Days after preparation) was 2-Phase each time. The “Average HLB” value in series [2] was 1.5. Further, in series [2], the “HLB Range” value is 1-3.

For “mixture of the 2-(3-hydroxymethyl-5,5-dimethyl-1,3-diazacyclopentane-2,4-dion-1-yl)-ethylesters of caprylic acid and capric acid [Methylolated C8/10 Ester]”, in series [1], the “ability to stabilize emulsions” value is recorded as “generally unable to stabilize an emulsion for more than two hours”.

With “2-(5,5-dimethyl-1,3-diazacyclopentane-2,4-dion-1-yl)-ethyl ester of isostearic acid [Isostearic Non-Methylolated Ester]”, the “Classification of Emulsion” value in series [1] (7 Days after preparation), in series [1] (22 Days after preparation) and in series [1] (55 Days after preparation) was 2-Phase throughout. Further, the “Average HLB” value in series [2] amounted to 7.0. Further, the “HLB Range” value in series [2] is reported as 6-7.

Consider “2-(3-hydroxymethyl-5,5-dimethyl-1,3-diazacyclopentane-2,4-dion-1-yl)-ethylester of coconut fatty acid [Coconut Methylolated Ester]”, for which, in series [3], the “stability of dispersions in water” value was “stable for weeks”. In series [1], the “ability to stabilize emulsions” value is “the best emulsifiers tested” and the “duration of stabilized emulsions” value is given as “more than 22 days”.

Turning to `CC(=O)OCCN1C(=O)NC(=O)C1(C)C` [Acetic Non-Methylolated Ester, 2-(5,5-dimethyl-1,3-diazacyclopentane-2,4-dion-1-yl)-ethyl ester of acetic acid], the “Classification of Emulsion” value in series [1] (2 Hours after preparation), in series [1] (7 Days after preparation), in series [1] (22 Days after preparation) and in series [1] (55 Days after preparation) was 2-Phase throughout. Besides, the “Average HLB” value in series [2] came out at 7.0. Also, in series [2], the “HLB Range” value was 6-8.

For the compound `CCCCCCCCCCCC(=O)OCCN1C(=O)NC(=O)C1(C)C` [Non-Methylolated Lauric Ester, 2-(5,5-dimethyl-1,3-diazacyclopentane-2,4-dion-1-yl)-ethyl ester of lauric acid], the “Colony Count” value in series [4] (Day 0) is “TNC”; in series [4] (Day 1), 500 × 1,000; in series [4] (Day 2), 3,000 × 1,000; in series [4] (Day 3), “TNC”; in series [4] (Day 7), 30 × 1,000; in series [5] (Day 0) it was “TNC”. Also, the “Colony Count” value is listed as “TNC” in series [5] (Day 1); “TNC” in series [5] (Day 2); 250 × 1,000 in series [5] (Day 3); “TNC” in series [5] (Day 7); “TNC” in series [6] (Day 0); “TNC” in series [6] (Day 1). The “Colony Count” value is listed as “TNC” in series [6] (Day 2); “TNC” in series [6] (Day 3); “TNC” in series [6] (Day 7); 300 × 1,000 in series [7] (Day 0); 200 × 1,000 in series [7] (Day 1); 200 × 1,000 in series [7] (Day 2). Further, the “Colony Count” value in series [7] (Day 3) was 220 × 1,000; in series [7] (Day 7), 150 × 1,000. In series [2], the “Average HLB” value came to 6.5. Further, the “HLB Range” value in series [2] was 5-7.

As to `CCCCCCCC/C=C\CCCCCCCC(=O)OCCN1C(=O)NC(=O)C1(C)C` [Oleic Non-Methylolated Ester, 2-(5,5-dimethyl-1,3-diazacyclopentane-2,4-dion-1-yl)-ethyl ester of oleic acid], the “Classification of Emulsion” value in series [1] (7 Days after preparation), in series [1] (22 Days after preparation) and in series [1] (55 Days after preparation) was 2-Phase each time. In addition, the “Average HLB” value in series [2] is on record as 8.5. Also, in series [2], the “HLB Range” value was 8-9.
